Assay results taken from patent publication EP3875456A1, “HETERO-BIFUNCTIONAL PROTEOLYSIS-TARGETING CHIMERAS (PROTACS) FOR THE SELECTIVE DEGRADATION OF FK506-BINDING PROTEINS (FKBPS)” (Technische Universität Darmstadt, priority 2020, dated 2021).

Experiments:
[1] = target: T1, FKBP51FK1 (Homo sapiens, UniProt Q13451); test: Binding affinities of exemplary compounds to FKBP51
T1 construct: FKBP51FK1
T1 sequence (Q13451 42-130 limits assumed): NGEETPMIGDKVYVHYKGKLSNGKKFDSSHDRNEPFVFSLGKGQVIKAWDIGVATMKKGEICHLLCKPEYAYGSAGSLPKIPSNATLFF
Protocol: Binding to FKBP51 is an important prerequisite in order to allow degradation of FKBP51. Thus, the binding affinities of the newly synthesized molecules (table 1) were tested.

[2] = target: T2, FKBP51 (Homo sapiens, UniProt Q13451); test: Degradation of FKBP51 in HEK293T cells (Western blot); assay type: cell-based; parameters: Upper blot: Endogeneous FKBP51; endogenous in cells; details: 48 h incubation, endogeneous FKBP51, Western Blot, GAPDH control
T2 sequence (Q13451 1-457): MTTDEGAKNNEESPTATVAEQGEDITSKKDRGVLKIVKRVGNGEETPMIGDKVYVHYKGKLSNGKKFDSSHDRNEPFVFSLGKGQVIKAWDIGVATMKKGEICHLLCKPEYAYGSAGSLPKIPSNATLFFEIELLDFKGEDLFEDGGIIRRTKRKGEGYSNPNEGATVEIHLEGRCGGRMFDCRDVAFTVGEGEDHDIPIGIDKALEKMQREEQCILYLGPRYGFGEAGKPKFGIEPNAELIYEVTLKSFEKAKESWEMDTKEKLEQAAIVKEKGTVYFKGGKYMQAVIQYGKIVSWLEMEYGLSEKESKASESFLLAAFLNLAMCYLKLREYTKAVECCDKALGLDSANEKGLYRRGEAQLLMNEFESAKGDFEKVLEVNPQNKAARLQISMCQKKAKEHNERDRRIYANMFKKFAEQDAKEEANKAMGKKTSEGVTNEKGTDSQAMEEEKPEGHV
Protocol: (§1) HEK293T cells were incubated with the PROTAC MTQ202. 35,000 cells per well in a 24 well format. Figure 3-Upper blot: Endogeneous FKBP51. Figure 3-Lower blot: GAPDH. Cells were treated with the compound for 48 h before lysis. All samples have been exposed to a constant DMSO concentration. Lysate protein concentration was quantified via BCA assay and normalized with Lämmli buffer. Equal amounts of total protein were subjected to SDS-Page and Western Blot afterwards.

[3] = target: T2, FKBP51; test: Degradation of FKBP51 in HeLa cells (Western blot); assay type: cell-based; parameters: Upper blot: Endogeneous FKBP51; endogenous in cells; host or cells: HeLa; details: 24 h incubation, endogeneous FKBP51, Western Blot, GAPDH control
Protocol: as §1, with “HeLa” for “HEK293T”, “2 - Upper” for “3-Upper”, “2 - Lower” for “3-Lower”, “24” for “48”

Row | Degradation of FKBP51 [2] | Degradation of FKBP51 [3] | SMILES | Ki [1] [nM]
1 | clearly visible, but not complete | clearly visible, but not complete | COc1ccc(CC[C@H](OC(=O)[C@H]2CCCCN2C(=O)[C@H](c2cc(OC)c(OC)c(OC)c2)C2CCCCC2)c2cccc(OCc3cn(CCOCCOCCOCCOCC(=O)N[C@H](C(=O)N4C[C@H](O)C[C@H]4C(=O)NCc4ccc(-c5scnc5C)cc4)C(C)(C)C)nn3)c2)cc1OC (stereo in doubt) [MTQ202, (S)-(R)-3-(3,4-Dimethoxyphenyl)-1-(3-((1-((S)-16-((2S,4R)-4-hydroxy-2-((4-(4-methylthiazol-5-yl)benzyl)carbamoyl)pyrrolidine-1-carbonyl)-17,17-dimethyl-14-oxo-3,6,9,12-tetraoxa-15-azaoctadecyl)-1H-1,2,3-triazol-4-yl)methoxy)phenyl)propyl 1-((S)-2-cyclohexyl-2-(3,4,5-trimethoxyphenyl)acetyl)piperidine-2-carboxylate] | 24 ± 8
2 | – | – | COc1cccc([C@@H](CCc2ccc(OCc3cn(CCOCCOCCOCCOCC(=O)N[C@H](C(=O)N4C[C@H](O)C[C@H]4C(=O)NCc4ccc(-c5scnc5C)cc4)C(C)(C)C)nn3)c(OC)c2)OC(=O)[C@@H]2CCCCN2C(=O)[C@H](c2cc(OC)c(OC)c(OC)c2)C2CCCCC2)c1 [MTQ331, (S)-(R)-3-(4-((1-((5)-16-((25,4R)-4-Hydroxy-2-((4-(4-methylthiazol-5-yl)benzyl)carbamoyl)pyrrolidine-l-carbonyl)-17,17-dimethyl-14-oxo-3,6,9,12-tetraoxa-15-azaoctadecyl)-1H-1,2,3-triazol-4-yl)methoxy)-3-methoxyphenyl)-1-(3-methoxyphenyl)propyl 1-((S)-2-cyclohexyl-2-(3,4,5-trimethoxyphenyl)acetyl)piperidine-2-carboxylate] | 59 ± 22
3 | – | – | COc1cccc([C@@H](CCc2ccc(OCc3cn(CCOCCOCCOCCOCCOCC(=O)N[C@H](C(=O)N4C[C@H](O)C[C@H]4C(=O)NCc4ccc(-c5scnc5C)cc4)C(C)(C)C)nn3)c(OC)c2)OC(=O)[C@@H]2CCCCN2C(=O)[C@H](c2cc(OC)c(OC)c(OC)c2)C2CCCCC2)c1 [MTQ332, (S)-(R)-3-(4-((1-((S)-19-((2S,4R)-4-Hydroxy-2-((4-(4-methylthiazo1-5-yl)benzyl)carbamoyl)pyrrolidine-1-carbonyl)-20,20-dimethyl-17-oxo-3,6,9,12,15-pentaoxa-18-azahenicosyl)-1H-1,2,3-triazol-4-yl)methoxy)-3-methoxyphenyl)-1-(3-methoxyphenyl)propyl 1-((S)-2-cyclohexyl-2-(3,4,5-trimethoxyphenyl)acetyl)piperidine-2-carboxylate] | 34 ± 10
4 | – | – | COc1cccc([C@@H](CCc2ccc(OCc3cn(CCOCC(=O)Nc4cccc5c4C(=O)N(C4CCC(=O)NC4=O)C5=O)nn3)c(OC)c2)OC(=O)[C@@H]2CCCCN2C(=O)[C@H](c2cc(OC)c(OC)c(OC)c2)C2CCCCC2)c1 (stereo partly drawn) [MTQ333, (25)-(1R)-3-(4-((1-(2-(2-((2-(2,6-Dioxopiperidin-3-yl)-1,3-dioxoisoindolin-4-yl)amino)-2-oxoethoxy)ethyl)-1H-1,2,3-triazol-4-yl)methoxy)-3-methoxyphenyl)-1-(3-methoxyphenyl)propyl 1-((S)-2-cyclohexyl-2-(3,4,5-trimethoxyphenyl)acetyl)piperidine-2-carboxylate] | 22 ± 6
5 | – | – | COc1cccc([C@@H](CCc2ccc(OCc3cn(CCOCCOCC(=O)Nc4cccc5c4C(=O)N(C4CCC(=O)NC4=O)C5=O)nn3)c(OC)c2)OC(=O)[C@@H]2CCCCN2C(=O)[C@H](c2cc(OC)c(OC)c(OC)c2)C2CCCCC2)c1 (stereo partly drawn) [MTQ334, (25)-(1R)-3-(4-((1-(2-(2-(2-((2-(2,6-Dioxopiperidin-3-yl)-1,3-dioxoisoindolin-4-yl)amino)-2-oxoethoxy)ethoxy)ethyl)-1H-1,2,3-triazol-4-yl)methoxy)-3-methoxyphenyl)-1-(3-methoxyphenyl)propyl 1-((S)-2-cyclohexyl-2-(3,4,5-trimethoxyphenyl)acetyl)piperidine-2-carboxylate] | 21 ± 10
